These results are taken from patent publication US6794491B1, “Polypeptides, their production and use” (Takeda Chemical Industries, Ltd., priority 1995, dated 2004).

Where no end group is shown, it is not given here.

A short description of assay [1]: blood pressure after injection into the area postrema of medula oblongata. The assay is classed as in vivo, male Wistar rats. The note with it: 10 nmol into the area postrema of medula oblongata, conscious rats. On the procedure: The inventors explored the influence of injection of 19P2-L31 into the area postrema of medula oblongata on blood pressure. Mature male Wistar rats (body weights at operation: ca 300 g) were anesthetized with pentobarbital 50 mg/kg i.p. and each animal was immobilized in a rat brain stereotaxic apparatus. The incisor bar was lowered by 3.3 mm from the interaural line. The skull was exposed, and using a dental drill a hole was made on the skull for implantation of a guide cannula. In addition, anchor screws were buried in two positions around the drilled hole. A stainless-steel guide cannula, AG-12 (0.4 mm inside dia., 0.5 mm out. dia., EICOM), was inserted in such a manner that its leading end would be situated in the upper part of the area postrema. […] With reference to the atlas of Paxinos and Watson (1986), the stereotaxic coordinates were AP: −6.0 mm (from interaural line), L: 0.0 mm, and H: +1.5 mm (from interaural line). […]
After waiting overnight postoperatively, the polyethylene tube was connected to a transducer (Spectramed) and the blood pressure was measured. After blood pressure readings became steady, the cap nut and dummy cannula were removed from the rat skull and, instead, a stainless steel microinjection cannula (0.17 mm in. dia., 0.35 mm out. dia., EICOM) connected to a Teflon tube (50 cm long, 0.1 mm in. dia., 0.4 mm out. dia., EICOM) was inserted. […]

The target of assay [2] is T1, UHR-1 expressed in CHO cells (CHO-UHR1) (Rattus norvegicus, UniProt Q64121, L289V).
T1 construct: expressed in transfected cells; host or cells: CHO dhfr- cells transfected with pAKKO-UHR-1
T1 sequence (Q64121 1-370 L289V): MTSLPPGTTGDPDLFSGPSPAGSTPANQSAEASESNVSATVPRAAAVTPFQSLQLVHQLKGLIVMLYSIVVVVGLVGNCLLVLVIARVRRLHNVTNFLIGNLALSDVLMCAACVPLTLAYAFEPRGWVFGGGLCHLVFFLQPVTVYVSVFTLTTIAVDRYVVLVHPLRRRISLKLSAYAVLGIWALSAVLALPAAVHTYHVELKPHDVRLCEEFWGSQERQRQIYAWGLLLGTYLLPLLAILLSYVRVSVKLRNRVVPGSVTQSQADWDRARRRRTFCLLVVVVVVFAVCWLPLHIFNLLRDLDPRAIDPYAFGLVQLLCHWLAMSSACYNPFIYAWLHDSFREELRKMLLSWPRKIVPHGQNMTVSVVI
Put plainly: release of arachidonic acid metabolites from CHO-UHR1 cells. The assay is classed as cell-based. The settings on record: CHO cells expressing rat homolog UHR1; duplicate. On the procedure: The full-length receptor protein-expressed CHO cells and mock CHO cells were seeded in a 24-well plate, 0.5×10^5 cells/well, and cultured for 24 hours. Then, [^3H] arachidonic acid was added at a final concentration of 0.25 μCi/well. Sixteen (16) hours after addition of [^3H] arachidonic acid, the cells were rinsed with 0.05% BSA-HBSS and the above-mentioned crude peptide fraction was added, 400 μl/well. The mixture was incubated at 37° C. for 30 minutes and a 300 μl portion of the reaction mixture (400 μl) was added to 4 ml of a scintillator and the amount of [^3H] arachidonic acid metabolite released into the reaction mixture was determined with a scintillation counter.
Same as described in Example 11, the release activity of arachidonic acid metabolite was measured on CHO-19P2-9 and CHO-UHR1 and mock CHO.

Turning to “Ser-Arg-Ala-His-Gln-His-Ser-Met-Glu-Ile-Arg-Thr-Pro-Asp-Ile-Asn-Pro-Ala-Trp-Tyr-Ala-Gly-Arg-Gly-Ile-Arg-Pro-Val-Gly-Arg-Phe-NH2 (SRAHQHSMEIRTPDINPAWYAGRGIRPVGRF-NH2) [19P2-L31, synthetic ligand polypeptide]”, the blood pressure result in assay [1] is given as “caused an elevation of blood pressure”. Also, the “release activity of arachidonic acid metabolite” value in assay [2] is “detected same as CHO-19P2-9”.
